The subject of test [1] is hMSCs (human mesenchymal stem cells). As to the kind of experiment: In vitro cell differentiation potential by calcium production (Alizarin red S staining). Type of test: cell-based. To be noted: hMSCs treated with 10 mM peptide, hard tissue forming medium, FIG. 6. How it is done: To measure the cell differentiation ability of the heparin binding peptide by calcium production, 1×10^3 hMSCs (human mesenchymal stem cells) were dispensed into each well of a well-plate, and then treated with 10 mM of each of the peptides of SEQ ID NOS: 2 and 3 synthesized in Example 2. Then, the cells were cultured in a hard tissue forming medium (MSCBM medium containing 15% FBS (fetal bovine serum), […] L-ascorbic acid, 10^−7 M dexamethasone, 1% antibiotic-antimycotic solution, and 10 mM beta-glycerol phosphate) for […]. After completion of the culture, the medium was removed, and the cells were washed twice with phosphate buffered saline (PBS). Then, the cells were fixed with 90% ethanol at 4° C. for 15 minutes and washed twice with distilled water, followed by staining with 2% Alizarin red S solution (pH 4.2; Alizarin red S powder, Junsei, JAPAN) for 5 minutes.

Test [2] is described as follows: Binding of synthesized peptide to heparin (solid phase method, HRP-conjugated heparin binding protein, absorbance at 405 nm). To be noted: peptide coated on 96-well plates, sodium heparin 10 μg/100 μL, FIG. 5. How it is done:
The synthesized peptide was dissolved in PBS at various concentrations and coated on the surface of 96-well Maxisorp microtiter plates (Nunc). Then, it was blocked with 1% BSA at 37° C. for 1 hour, and sodium heparin (10 μg/100 μL) was added to the peptide and reacted with the peptide at room temperature for 4 hours. The plate was washed three times with PBS, and then horseradish peroxidase (HRP)-conjugated heparin binding protein (Lifespan Technologies, Salt Lake City, Utah) diluted in PBS at a concentration of 1 μg/mL was reacted with the peptide at room temperature for 1 hour. To measure the binding of HRP-conjugated heparin binding protein to the peptide, ABTS was added to each well to develop color, and after 5 minutes, 1% SDS was added to each well to stop the reaction. Then, the absorbance of each well at 405 nm was measured. The absorbance of the peptide having the HRP-conjugated heparin binding protein bound thereto was calculated relative to 100% for the well surface coated with 1% BSA.
Binding %=(absorbance of well coated with heparin binding peptide/absorbance of well coated with BSA)×100

“SLYVDFSDVGW (the sequence is synthesized) [SEQ ID NO: 3, BMP-4 peptide selected from chymotrypsin cleavage sites]”: the production of calcium result in test [1] is on record as “lowest”.
With “SQRARKKNKNCRRH (the sequence is synthesized) [SEQ ID NO: 2]”, in test [2], the “ability to bind to heparin” value was “high ability to bind to heparin”. In addition, the production of calcium result in test [1] is “highest”.
